Laboratory results from patent US11377442B2, “Small molecule agonists and antagonists of NR2F6 activity” (ZANDER THERAPEUTICS, INC., priority 2016, dated 2022).
Like-named read-outs stand apart in the source and are kept apart here.

What was measured:
Assay type in all cases: cell-based
[1] = target: T1, NR2F6 (Homo sapiens, UniProt P10588); assay: NR2F6 agonist screening, Firefly signal cmpd/DMSO
T1 construct: expressed in transfected cells; also transient transfection
T1 sequence (P10588 1-404): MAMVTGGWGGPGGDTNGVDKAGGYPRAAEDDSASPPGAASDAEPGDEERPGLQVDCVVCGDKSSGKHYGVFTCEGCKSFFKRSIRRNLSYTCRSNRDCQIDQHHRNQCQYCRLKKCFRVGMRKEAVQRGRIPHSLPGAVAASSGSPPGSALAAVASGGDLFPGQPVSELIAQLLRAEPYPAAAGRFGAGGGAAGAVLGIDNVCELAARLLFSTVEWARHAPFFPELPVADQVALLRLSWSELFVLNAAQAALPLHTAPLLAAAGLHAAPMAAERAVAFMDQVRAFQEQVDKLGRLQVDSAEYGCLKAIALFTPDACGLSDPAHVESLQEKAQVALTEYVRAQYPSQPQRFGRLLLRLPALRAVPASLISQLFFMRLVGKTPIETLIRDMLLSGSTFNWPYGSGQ

[2] = system: Renilla; assay: Renilla signal in NR2F6 agonist screening, cmpd/DMSO; conditions: Renilla
[3] = system: HEK293 pGL4; assay: Firefly_pGL signal, cmpd/DMSO (pGL4 control cells); conditions: Homo sapiens
[4] = target: T2, NR2F6 LBD (Homo sapiens, UniProt P10588); assay: NR2F6 LBD transient transfection
T2 construct: expressed in transfected cells
T2 sequence (P10588 165-393 limits assumed): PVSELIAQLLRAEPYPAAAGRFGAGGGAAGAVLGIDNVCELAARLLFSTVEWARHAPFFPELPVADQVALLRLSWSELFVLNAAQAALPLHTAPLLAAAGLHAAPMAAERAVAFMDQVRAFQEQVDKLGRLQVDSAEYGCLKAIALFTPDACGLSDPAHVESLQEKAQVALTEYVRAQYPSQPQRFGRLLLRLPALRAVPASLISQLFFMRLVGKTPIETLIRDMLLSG
Procedure, shortened: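 LBD-transfected cells treated at 40, 10, 2 and 0.5 μM (4 replicates); cytotoxicity measured in parallel, normalized to DMSO (0%) and zero signal (100%). Higher concentrations excluded where signal loss reflected toxicity.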

[5] = system: Renilla; assay: Renilla signal, LBD, cmpd/DMSO (NR2F6 LBD transfected cells)
[6] = read-out: Renilla F4, cmpd/DMSO (mean)
[7] = F4, 1% FBS, read-out: Renilla, F4, 1% FBS, cmpd/DMSO (mean)
[8] = F4, 10% FBS, read-out: Renilla, F4, 10% FBS, cmpd/DMSO (mean)
[9] = HEK293, 0.5 uM, read-out: Firefly pGL4, cmpd/DMSO (mean)
[10] = HEK293, 2 uM, read-out: Firefly pGL4, cmpd/DMSO (mean)
[11] = HEK293, 10 uM, read-out: Firefly pGL4, cmpd/DMSO (mean)
[12] = HEK293, 40 uM, read-out: Firefly pGL4, cmpd/DMSO (mean)
[13] = HEK293, pGL4, 1% FBS, 0.5 uM, read-out: Firefly, pGL4, 1% FBS, cmpd/DMSO (mean)
[14] = HEK293, pGL4, 1% FBS, 2 uM, read-out: Firefly, pGL4, 1% FBS, cmpd/DMSO (mean)
[15] = HEK293, pGL4, 1% FBS, 10 uM, read-out: Firefly, pGL4, 1% FBS, cmpd/DMSO (mean)
[16] = HEK293, pGL4, 1% FBS, 40 uM, read-out: Firefly, pGL4, 1% FBS, cmpd/DMSO (mean)
[17] = HEK293, pGL4, 10% FBS, 0.5 uM, read-out: Firefly, pGL4, 10% FBS, cmpd/DMSO (mean)
[18] = HEK293, pGL4, 10% FBS, 2 uM, read-out: Firefly, pGL4, 10% FBS, cmpd/DMSO (mean)
[19] = HEK293, pGL4, 10% FBS, 10 uM, read-out: Firefly, pGL4, 10% FBS, cmpd/DMSO (mean)
[20] = HEK293, pGL4, 10% FBS, 40 uM, read-out: Firefly, pGL4, 10% FBS, cmpd/DMSO (mean)

O=S1(=O)C[C@H](NCCCc2ccccc2)[C@@H](S(=O)(=O)c2ccc(Cl)cc2)C1 [Compound D137]
Firefly F4, cmpd/DMSO (mean) ([1]; 0.5 uM): 1.1
Firefly F4, cmpd/DMSO (mean) ([1]; 2 uM): 1.3
Firefly F4, cmpd/DMSO (mean) ([1]; 10 uM): 2.0
Firefly F4, cmpd/DMSO (mean) ([1]; 40 uM): 0.6
F4, Firefly/Renilla for S/B(F4) > 3 ([1]; 1% FBS, 10 uM): 1.9
Firefly, F4/pGL4 for S/B(F4) > 3 ([1]; 1% FBS, 10 uM): 2.7
F4, Firefly/Renilla for S/B(F4) > 3 ([1]; 1% FBS, 40 uM): 1.0
Firefly, F4/pGL4 for S/B(F4) > 3 ([1]; 1% FBS, 40 uM): 2.4
F4, Firefly/Renilla for S/B(F4) > 3 ([1]; 10% FBS, 10 uM): 2.2
Firefly, F4/pGL4 for S/B(F4) > 3 ([1]; 10% FBS, 10 uM): 2.2
F4, Firefly/Renilla for S/B(F4) > 3 ([1]; 10% FBS, 40 uM): 3.3
Firefly, F4/pGL4 for S/B(F4) > 3 ([1]; 10% FBS, 40 uM): 3.1
Firefly, F4, 1% FBS, cmpd/DMSO (mean) ([1]; 1% FBS, 0.5 uM): 1.2
Firefly, F4, 1% FBS, cmpd/DMSO (mean) ([1]; 1% FBS, 2 uM): 2.2
Firefly, F4, 1% FBS, cmpd/DMSO (mean) ([1]; 1% FBS, 10 uM): 3.9
Firefly, F4, 1% FBS, cmpd/DMSO (mean) ([1]; 1% FBS, 40 uM): 3.4
Firefly, F4, 10% FBS, cmpd/DMSO (mean) ([1]; 10% FBS, 0.5 uM): 0.9
Firefly, F4, 10% FBS, cmpd/DMSO (mean) ([1]; 10% FBS, 2 uM): 1.4
Firefly, F4, 10% FBS, cmpd/DMSO (mean) ([1]; 10% FBS, 10 uM): 4.6
Firefly, F4, 10% FBS, cmpd/DMSO (mean) ([1]; 10% FBS, 40 uM): 13
fold induction at 0.5 µM [2, 6]: 1.1
fold induction at 2 µM [2, 6]: 1.1
fold induction at 10 µM [2, 6]: 1.8
fold induction at 40 µM [2, 6]: 2.6
fold induction at 0.5 µM [2, 7]: 1
fold induction at 2 µM [2, 7]: 1.3
fold induction at 10 µM [2, 7]: 2.1
fold induction at 40 µM [2, 7]: 3.5
fold induction at 0.5 µM [2, 8]: 1.2
fold induction at 2 µM [2, 8]: 1.4
fold induction at 10 µM [2, 8]: 2.1
fold induction at 40 µM [2, 8]: 4
fold induction at 0.5 µM [3, 9]: 0.8
fold induction at 2 µM [3, 10]: 1.2
fold induction at 10 µM [3, 11]: 1.5
fold induction at 40 µM [3, 12]: 1.5
fold induction at 0.5 µM [3, 13]: 1
fold induction at 2 µM [3, 14]: 1
fold induction at 10 µM [3, 15]: 1.5
fold induction at 40 µM [3, 16]: 1.5
fold induction at 0.5 µM [3, 17]: 0.7
fold induction at 2 µM [3, 18]: 1.1
fold induction at 10 µM [3, 19]: 2.1
fold induction at 40 µM [3, 20]: 4.3
Firefly LBD, cmpd/DMSO (mean) ([4]; 0.5 uM): 1.1
Firefly LBD, cmpd/DMSO (mean) ([4]; 2 uM): 2.0
Firefly LBD, cmpd/DMSO (mean) ([4]; 10 uM): 3.2
Firefly LBD, cmpd/DMSO (mean) ([4]; 40 uM): 0.4
Renilla LBD, cmpd/DMSO (mean) ([5]; 0.5 uM): 1.0
Renilla LBD, cmpd/DMSO (mean) ([5]; 2 uM): 1.0
Renilla LBD, cmpd/DMSO (mean) ([5]; 10 uM): 0.8
Renilla LBD, cmpd/DMSO (mean) ([5]; 40 uM): 0.4

CC(C)OCCCN[C@H]1CS(=O)(=O)C[C@@H]1S(=O)(=O)c1ccc(Cl)cc1 [Compound D138]
Firefly F4, cmpd/DMSO (mean) ([1]; 0.5 uM): 1.0
Firefly F4, cmpd/DMSO (mean) ([1]; 2 uM): 1.1
Firefly F4, cmpd/DMSO (mean) ([1]; 10 uM): 2.6
Firefly F4, cmpd/DMSO (mean) ([1]; 40 uM): 1.7
F4, Firefly/Renilla for S/B(F4) > 3 ([1]; 1% FBS, 10 uM): 2.2
Firefly, F4/pGL4 for S/B(F4) > 3 ([1]; 1% FBS, 10 uM): 2.7
F4, Firefly/Renilla for S/B(F4) > 3 ([1]; 1% FBS, 40 uM): 1.1
Firefly, F4/pGL4 for S/B(F4) > 3 ([1]; 1% FBS, 40 uM): 1.9
F4, Firefly/Renilla for S/B(F4) > 3 ([1]; 10% FBS, 10 uM): 1.6
Firefly, F4/pGL4 for S/B(F4) > 3 ([1]; 10% FBS, 10 uM): 1.8
F4, Firefly/Renilla for S/B(F4) > 3 ([1]; 10% FBS, 40 uM): 3.2
Firefly, F4/pGL4 for S/B(F4) > 3 ([1]; 10% FBS, 40 uM): 3.2
Firefly, F4, 1% FBS, cmpd/DMSO (mean) ([1]; 1% FBS, 0.5 uM): 0.8
Firefly, F4, 1% FBS, cmpd/DMSO (mean) ([1]; 1% FBS, 2 uM): 1.9
Firefly, F4, 1% FBS, cmpd/DMSO (mean) ([1]; 1% FBS, 10 uM): 4.2
Firefly, F4, 1% FBS, cmpd/DMSO (mean) ([1]; 1% FBS, 40 uM): 3.3
Firefly, F4, 10% FBS, cmpd/DMSO (mean) ([1]; 10% FBS, 0.5 uM): 1.8
Firefly, F4, 10% FBS, cmpd/DMSO (mean) ([1]; 10% FBS, 2 uM): 1.3
Firefly, F4, 10% FBS, cmpd/DMSO (mean) ([1]; 10% FBS, 10 uM): 3.1
Firefly, F4, 10% FBS, cmpd/DMSO (mean) ([1]; 10% FBS, 40 uM): 12
fold induction at 0.5 µM [2, 6]: 0.8
fold induction at 2 µM [2, 6]: 1
fold induction at 10 µM [2, 6]: 1.2
fold induction at 40 µM [2, 6]: 2.3
fold induction at 0.5 µM [2, 7]: 1.3
fold induction at 2 µM [2, 7]: 1.4
fold induction at 10 µM [2, 7]: 1.9
fold induction at 40 µM [2, 7]: 2.9
fold induction at 0.5 µM [2, 8]: 1.4
fold induction at 2 µM [2, 8]: 1.4
fold induction at 10 µM [2, 8]: 2
fold induction at 40 µM [2, 8]: 3.6
fold induction at 0.5 µM [3, 9]: 0.9
fold induction at 2 µM [3, 10]: 0.9
fold induction at 10 µM [3, 11]: 1.5
fold induction at 40 µM [3, 12]: 1.5
fold induction at 0.5 µM [3, 13]: 1
fold induction at 2 µM [3, 14]: 1
fold induction at 10 µM [3, 15]: 1.6
fold induction at 40 µM [3, 16]: 1.7
fold induction at 0.5 µM [3, 17]: 1.1
fold induction at 2 µM [3, 18]: 1
fold induction at 10 µM [3, 19]: 1.7
fold induction at 40 µM [3, 20]: 3.6
Firefly LBD, cmpd/DMSO (mean) ([4]; 0.5 uM): 1.3
Firefly LBD, cmpd/DMSO (mean) ([4]; 2 uM): 1.8
Firefly LBD, cmpd/DMSO (mean) ([4]; 10 uM): 3.7
Firefly LBD, cmpd/DMSO (mean) ([4]; 40 uM): 0.4
Renilla LBD, cmpd/DMSO (mean) ([5]; 0.5 uM): 0.9
Renilla LBD, cmpd/DMSO (mean) ([5]; 2 uM): 1.1
Renilla LBD, cmpd/DMSO (mean) ([5]; 10 uM): 0.9
Renilla LBD, cmpd/DMSO (mean) ([5]; 40 uM): 0.3
